Laboratory results reported in patent publication US9145346B1, “Process for 2,2,4,4-tetramethylcyclobutane-1,3-diol crystallization” (Eastman Chemical Company, priority 2014, dated 2015).

Assay: Solubility (saturated concentration) of cis-TMCD and trans-TMCD in various solvents, by gas chromatography
Format: physicochemical
Description: All concentrations were measured by gas chromatography. Water concentration was measured by Karl Fischer titrations.
The solubility of cis-TMCD and trans-TMCD in various solvents was determined by charging cis-TMCD, trans-TMCD, and the solvent or solvents of interest into a 120 ml jacketed glass vessel. The vessel was equipped with a stir bar in order to provide mixing and the jacket was used to control the temperature of the vessel contents. The vessel was equipped with charging and sampling ports on top of the vessel.
The slurry was allowed to stand for a time sufficient for the solids to saturate the solvent at the desired temperature. At that time, a sample of the solution was withdrawn from the cell using a fritted pipette so as to remove only the liquid phase. The sample was analyzed for cis-TMCD and trans-TMCD isomer content. These values represent the saturated concentration of each isomer at the sampling temperature.
After this, the cell contents were heated to the next desired temperature and the contents were held for another time interval sufficient to allow the slurry to equilibrate. A sample was then taken of the solution and analyzed. Following this procedure, solubility data was collected up to the final desired temperature.
The reported solubility of each isomer at a given temperature for a given solvent is expressed as a weight % relative to the saturated concentration of the isomer at the highest temperature reported for a given solvent.

## CC1(C)[C@H](O)C(C)(C)[C@@H]1O [cis-TMCD, cis-2,2,4,4-tetramethylcyclobutane-1,3-diol]
2-Ethylhexanol, 0.7° C., relative to 89.8° C.
  Relative solubility: 10% relative wt %
2-Ethylhexanol, 12.5° C., relative to 89.8° C.
  Relative solubility: 16% relative wt %
2-Ethylhexanol, 24.7° C., relative to 89.8° C.
  Relative solubility: 21% relative wt %
2-Ethylhexanol, 40.0° C., relative to 89.8° C.
  Relative solubility: 29% relative wt %
2-Ethylhexanol, 49.9° C., relative to 89.8° C.
  Relative solubility: 37% relative wt %
2-Ethylhexanol, 60.2° C., relative to 89.8° C.
  Relative solubility: 46% relative wt %
2-Ethylhexanol, 69.3° C., relative to 89.8° C.
  Relative solubility: 58% relative wt %
2-Ethylhexanol, 79.3° C., relative to 89.8° C.
  Relative solubility: 76% relative wt %
2-Ethylhexanol, 89.8° C., relative to 89.8° C.
  Relative solubility: 100% relative wt %
2-Ethylhexyl Acetate, 5.9° C., relative to 79.4° C.
  Relative solubility: 5% relative wt %
2-Ethylhexyl Acetate, 15.5° C., relative to 79.4° C.
  Relative solubility: 8% relative wt %
2-Ethylhexyl Acetate, 25.1° C., relative to 79.4° C.
  Relative solubility: 12% relative wt %
2-Ethylhexyl Acetate, 40.5° C., relative to 79.4° C.
  Relative solubility: 22% relative wt %
2-Ethylhexyl Acetate, 49.8° C., relative to 79.4° C.
  Relative solubility: 31% relative wt %
2-Ethylhexyl Acetate, 49.9° C., relative to 79.4° C.
  Relative solubility: 32% relative wt %
2-Ethylhexyl Acetate, 60.5° C., relative to 79.4° C.
  Relative solubility: 47% relative wt %
2-Ethylhexyl Acetate, 70.3° C., relative to 79.4° C.
  Relative solubility: 74% relative wt %
2-Ethylhexyl Acetate, 79.4° C., relative to 79.4° C.
  Relative solubility: 100% relative wt %
2-Ethylhexyl Acetate, −5.0° C., relative to 79.4° C.
  Relative solubility: 4% relative wt %
CHDM, 69.0° C., relative to 106.9° C.
  Relative solubility: 27% relative wt %
CHDM, 79.2° C., relative to 106.9° C.
  Relative solubility: 58% relative wt %
CHDM, 88.9° C., relative to 106.9° C.
  Relative solubility: 69% relative wt %
CHDM, 95.6° C., relative to 106.9° C.
  Relative solubility: 85% relative wt %
CHDM, 106.9° C., relative to 106.9° C.
  Relative solubility: 100% relative wt %
Dimethyl Carbonate, 6.2° C., relative to 70.1° C.
  Relative solubility: 7% relative wt %
Dimethyl Carbonate, 16.3° C., relative to 70.1° C.
  Relative solubility: 9% relative wt %
Dimethyl Carbonate, 25.7° C., relative to 70.1° C.
  Relative solubility: 14% relative wt %
Dimethyl Carbonate, 40.5° C., relative to 70.1° C.
  Relative solubility: 28% relative wt %
Dimethyl Carbonate, 54.7° C., relative to 70.1° C.
  Relative solubility: 55% relative wt %
Dimethyl Carbonate, 70.1° C., relative to 70.1° C.
  Relative solubility: 100% relative wt %
Ethanol, 5.3° C., relative to 60.3° C.
  Relative solubility: 47% relative wt %
Ethanol, 14.3° C., relative to 60.3° C.
  Relative solubility: 52% relative wt %
Ethanol, 25.5° C., relative to 60.3° C.
  Relative solubility: 68% relative wt %
Ethanol, 39.9° C., relative to 60.3° C.
  Relative solubility: 81% relative wt %
Ethanol, 50.1° C., relative to 60.3° C.
  Relative solubility: 88% relative wt %
Ethanol, 60.3° C., relative to 60.3° C.
  Relative solubility: 100% relative wt %
Ethyl Acetate, 4.2° C., relative to 54.9° C.
  Relative solubility: 15% relative wt %
Ethyl Acetate, 15.0° C., relative to 54.9° C.
  Relative solubility: 24% relative wt %
Ethyl Acetate, 26.2° C., relative to 54.9° C.
  Relative solubility: 37% relative wt %
Ethyl Acetate, 40.5° C., relative to 54.9° C.
  Relative solubility: 62% relative wt %
Ethyl Acetate, 54.9° C., relative to 54.9° C.
  Relative solubility: 100% relative wt %
Ethyl Acetate, −5.1° C., relative to 54.9° C.
  Relative solubility: 12% relative wt %
Ethylene Glycol, 26.5° C., relative to 91.4° C.
  Relative solubility: 25% relative wt %
Ethylene Glycol, 36.2° C., relative to 91.4° C.
  Relative solubility: 32% relative wt %
Ethylene Glycol, 48.5° C., relative to 91.4° C.
  Relative solubility: 42% relative wt %
Ethylene Glycol, 61.5° C., relative to 91.4° C.
  Relative solubility: 57% relative wt %
Ethylene Glycol, 72.1° C., relative to 91.4° C.
  Relative solubility: 68% relative wt %
Ethylene Glycol, 82.2° C., relative to 91.4° C.
  Relative solubility: 87% relative wt %
Methanol, 16.9° C., relative to 41.3° C.
  Relative solubility: 86% relative wt %
Methanol, 25.6° C., relative to 41.3° C.
  Relative solubility: 91% relative wt %
